Measured values as given in patent publication US20250228901A1, “COMPOSITION FOR PREVENTING, ALLEVIATING OR TREATING INFLAMMATORY SKIN DISEASES, COMPRISING CUTIBACTERIUM SP. STRAIN” (CJ Bioscience, Inc., priority 2021, published 2025).

How the values were obtained:
[1] = test system: mice in which rosacea is induced; experiment: Rosacea animal model induced by LL37 peptide; assay type: in vivo, BALB/c mice; details: for Dermal inflammation (histopathological evaluation score) / Epithelial hyperplasia (histopathological evaluation score): H&E staining of LL37-administered skin, culture products 150 μl i.p. x3, doxycycline 1 mg/kg x3, LL37 = rosacea induction only; for Total (histopathological evaluation score): sum of epithelial hyperplasia and dermal inflammation scores
Protocol: For the present animal effectiveness test, 32 5-week-old female BALB/c mice were purchased from Orient Bio company, and brought into a breeding room with a 12-hour artificial photoperiod, and acclimatized for one week, and then used in the experiment.
To make a rosacea animal model, hair on the mice's back area was removed using a depilator and hair removal cream. In 24 hours after depilation, to induce rosacea lesions, LL37 peptide (Peptron, Co., Ltd) of 320 μM was under intradermal injection using an insulin syringe by 50 μl. […] Doxycycline, which is one of conventional rosacea therapies, was peritoneally administered by 1 mg/kg once a day, for 3 days (total 3 times).
After 24 hours of the last strain culture product administration, the size (area) of erythema was measured using a caliper, and the animals were euthanized using CO2 gas, and then the lesion area was taken as a photograph and the degree of the erythema was observed by naked eyes and the tissue photographs and the area of the inflammation area were shown in FIG. 14a and FIG. 14b as graphs.

Raw264.7 macrophages = experiment: Inflammation regulation by living cells co-cultured with Raw264.7 macrophages, IL-6 and IL-10 ELISA; assay type: cell-based; details: living cells co-cultured 1:1 with macrophages, 24 hours; compared to the B. fragilis strain
Protocol: The secured living cells and immunocytes (Raw264.7 macrophages) were co-cultured at the same ratio (1:1) of 5×10^4/well, respectively, in a 96 well plate for 24 hours, and then the inflammation regulation efficacy of the strains was confirmed. As a control group, a B. fragilis strain known as an inflammation alleviating strain was used. The secreted amounts of the inflammatory cytokine (IL-6) and anti-inflammatory cytokine (IL-10) secreted from the macrophages were measured by ELISA, and then values thereof were calculated at a ratio of IL-10/IL-6 and they were shown in FIG. 11.

Compound | Dermal inflammation (histopathological evaluation score) [1] | Epithelial hyperplasia (histopathological evaluation score) [1] | Total (histopathological evaluation score) [1] | secreted amount of the anti-inflammatory cytokine (IL-10) (Raw264.7 macrophages) | secreted amount of the inflammatory cytokine (IL-6) (Raw264.7 macrophages)
C[C@H]1c2cccc(O)c2C(=O)C2=C(O)[C@]3(O)C(=O)C(C(N)=O)=C(O)[C@@H](N(C)C)[C@@H]3[C@@H](O)[C@@H]21 [doxycycline] | 2.4 | 1.2 | 3.6 |  | 
Cutibacterium acnes CJRS-10651 |  |  |  | promoted | reduced
Cutibacterium acnes CJRS-10652 |  |  |  | promoted | reduced
Cutibacterium acnes CJRS-10653 |  |  |  | promoted | reduced
Cutibacterium acnes CJRS-10654 |  |  |  | promoted | reduced
Cutibacterium acnes CJRS-10655 |  |  |  | promoted | reduced
Cutibacterium acnes CJRS-10656 |  |  |  | promoted | reduced
LL37 | 2.5 | 2.75 | 5.25 |  | 
